The NIST ThermoML archive (doi:10.1016/j.fluid.2016.08.002)

Test: xn = mol fraction of the nth substance listed
Conditions: Gas, Vibrating tube method

S [hydrogen sulfide] + C
Conditions	mass density [kg/m3]
273.32 K, 16120 kPa, x2 = 0.8685	204.24
273.32 K, 16817 kPa, x2 = 0.8685	211.55
273.33 K, 17352 kPa, x2 = 0.8685	216.85
273.33 K, 21405 kPa, x2 = 0.8685	250.29
273.34 K, 17978 kPa, x2 = 0.8685	222.75
273.34 K, 18233 kPa, x2 = 0.8685	225.06
273.35 K, 18773 kPa, x2 = 0.8685	229.81
273.35 K, 19531 kPa, x2 = 0.8685	236.12
273.36 K, 20692 kPa, x2 = 0.8685	245.12
273.37 K, 20048 kPa, x2 = 0.8685	240.23
273.37 K, 24085 kPa, x2 = 0.714	364.7
293.18 K, 239 kPa, x2 = 0.8685	1.86
293.18 K, 469 kPa, x2 = 0.8685	3.71
293.18 K, 2890 kPa, x2 = 0.8685	25.81
293.18 K, 8263 kPa, x2 = 0.8685	79.99
293.18 K, 8722 kPa, x2 = 0.8685	85.68
293.18 K, 9972 kPa, x2 = 0.8685	100.39
293.18 K, 12003 kPa, x2 = 0.8685	124.94
293.18 K, 12415 kPa, x2 = 0.8685	130.08
293.18 K, 12830 kPa, x2 = 0.8685	135.13
293.18 K, 13726 kPa, x2 = 0.8685	145.96
293.19 K, 792 kPa, x2 = 0.8685	6.46
293.19 K, 1341 kPa, x2 = 0.8685	11.22
293.19 K, 2300 kPa, x2 = 0.8685	20.14
293.19 K, 3396 kPa, x2 = 0.8685	30.35
293.19 K, 3988 kPa, x2 = 0.8685	35.82
293.19 K, 4428 kPa, x2 = 0.8685	40.25
293.19 K, 6909 kPa, x2 = 0.8685	65.4
293.19 K, 7335 kPa, x2 = 0.8685	70.05
293.19 K, 7786 kPa, x2 = 0.8685	74.96
293.19 K, 9097 kPa, x2 = 0.8685	90.09
293.19 K, 9534 kPa, x2 = 0.8685	95.16
293.19 K, 10368 kPa, x2 = 0.8685	105.2
293.19 K, 10794 kPa, x2 = 0.8685	110.28
293.19 K, 11183 kPa, x2 = 0.8685	115.06
293.19 K, 11608 kPa, x2 = 0.8685	120.16
293.19 K, 13230 kPa, x2 = 0.8685	140.02
293.19 K, 16228 kPa, x2 = 0.8685	174.96
293.19 K, 16699 kPa, x2 = 0.8685	180.07
293.19 K, 17682 kPa, x2 = 0.8685	190.29
293.2 K, 1820 kPa, x2 = 0.8685	15.41
293.2 K, 4887 kPa, x2 = 0.8685	44.78
293.2 K, 5494 kPa, x2 = 0.8685	50.99
293.2 K, 5964 kPa, x2 = 0.8685	55.59
293.2 K, 6411 kPa, x2 = 0.8685	60.21
293.2 K, 14242 kPa, x2 = 0.8685	152.42
293.2 K, 14579 kPa, x2 = 0.8685	156.48
293.2 K, 14924 kPa, x2 = 0.8685	160.62
293.2 K, 15365 kPa, x2 = 0.8685	165.51
293.2 K, 15806 kPa, x2 = 0.8685	170.31
293.2 K, 17183 kPa, x2 = 0.8685	185.14
293.2 K, 18163 kPa, x2 = 0.8685	195.16
293.2 K, 20932 kPa, x2 = 0.8685	220.42
293.2 K, 21495 kPa, x2 = 0.8685	224.99
293.2 K, 27629 kPa, x2 = 0.8685	265.96
293.2 K, 28496 kPa, x2 = 0.8685	270.59
293.21 K, 1117 kPa, x2 = 0.8685	9.2
293.21 K, 23505 kPa, x2 = 0.8685	240.2
293.21 K, 25865 kPa, x2 = 0.8685	255.77
293.21 K, 26669 kPa, x2 = 0.8685	260.49
293.21 K, 29415 kPa, x2 = 0.8685	275.27
293.21 K, 29995 kPa, x2 = 0.8685	278.16
293.21 K, 30419 kPa, x2 = 0.8685	280.17
293.22 K, 20355 kPa, x2 = 0.8685	215.54
293.22 K, 24254 kPa, x2 = 0.8685	245.19
293.22 K, 25052 kPa, x2 = 0.8685	250.52
